Experiments:
male BDF1 mice = assay: Lifespan study with ambroxol as chow supplement; assay type: in vivo, mouse
Experimental: Group 1 represents control animals that were not administered ambroxol; Group 2 represents animals administered 50 mg/kg (body weight) of ambroxol daily as a chow supplement, starting at 2 months of age
Weaned male BDF1 mice were raised from pups, housed 1-4 animals per cage and fed Teklad 7013 NIH-31 rodent chow and water ad libitum. At 2 months of age, the mice were divided into two roughly equal groups of 22-25 animals. One group continued to be fed the Teklad chow as before (control); the other group was switched to Teklad chow formulated with ambroxol at 300 mg per kg of chow. This formulation was designed, based on the average ad libitum chow consumption of an adult male BDF1 mouse, to deliver 50 mg/kg/day (based on body mass) to each mouse in the treated group. Mice were maintained on this diet until they died naturally or until they reached 16 months of age, at which time the experiment ended. During the course of the experiment all mice were periodically removed from their cages and handled in the course of subjecting them to various sensorimotor, cognitive, and/or behavioral tests.
Group 1 represents control animals that were not administered ambroxol; Group 2 represents animals administered 50 mg/kg of ambroxol daily as a chow supplement, starting at 2 months of age.

NIH3T3 cells = assay: Basal macroautophagy, mCherry-GFP-LC3 tandem reporter, high content microscopy; assay type: cell-based, mouse; conditions: 24 h in complete media; autophagic vacuoles, autophagosomes, autolysosomes; FIG. 3
Experimental: FIG. 3. Effect of Ambroxol on basal macroautophagy in mouse cells. Mouse fibroblasts in culture (NIH3T3 cells) expressing the tandem reporter mCherry-GFP-LC3 were exposed to the indicated concentrations of Ambroxol for 24 h in complete media. Panel A. Schematic of the autophagic compartments analyzed. Panels B-D. Number of autophagic vacuoles (AV) (Panel B); autophagosomes (APG) (Panel C); and autolysosomes (AUT) (Panel D). All values are mean+s.e.m. and quantifications were done in at least 2,500 cells per condition in three different experiments using high content microscopy. Differences with untreated (0 uM ambroxol) are significant for *p<0.05 **p<0.01 and ***p<0.001.
Mouse fibroblasts (NIH3T3) were obtained from the American Type Culture Collection (ATCC). […] The number of particles/puncta per cell was quantified using the ‘particle identifier’ function in the cytosolic region after thresholding in non-saturated images. In all cases, focal plane thickness was set at 0.17 μm and sections with maximal nucleus diameter were selected for quantification. […] Macroautophagy activity in intact cells was measured upon transduction with lentivirus carrying the mCherry-GFP-LC3 tandem construct. […] Cells were plated on glass-bottom 96 well plates and fluorescence was read in both channels. […] Autophagic flux was determined as the conversion of autophagosomes (yellow) to autolysosomes (red only puncta).

mice = assay: Novel place recognition cognitive acuity test; assay type: in vivo, mouse; conditions: tested at 7 months, FIG. 2
Experimental: FIG. 2. Mice were tested at age 7 months for novel place recognition. This is a cognitive test to measure short term working memory, involving recognition of a familiar object found in an unfamiliar place (see Magen et al (2012) Eur. J. Neurosci. 35: 870-882; Magen and Chesselet (2011) J. Parkinson's Disease 1: 217-227). A Discrimination Index (DI)=(tnovel−tfamiliar)/(tnovel+tfamiliar) is used to assess the time spent exploring near the object in a novel place (“tnovel”) vs. the total exploration time overall. Discrimination Index scores greater than zero are considered to indicate good place recognition memory. In this experiment, three groups of mice, with at least 13 mice in each group, were given a cognitive acuity test at 7 months.

Nc1c(Br)cc(Br)cc1CN[C@H]1CC[C@H](O)CC1 [Ambroxol, trans-4-(2-amino-3,5-dibromobenzylamino) cyclohexanol]
lifespan (male BDF1 mice; 50 mg/kg daily as chow supplement from 2 months of age, until 16 months, vs control (Group 1), FIG. 1): increase lifespan
healthspan (health of surviving animals when sacrificed) (male BDF1 mice; Group 2, 50 mg/kg daily, vs Group 1 control, preliminary data): at least as healthy
macroautophagy (NIH3T3 cells): Induces Macroautophagy
cognitive acuity (mice; High Dose group 150 mg/kg/day): best cognitive acuity results
cognitive acuity (mice; Low Dose group 50 mg/kg/day): results in between the Control Group and the “High Dose” Group

From US11583543B2, “Ambroxol to improve and/or extend healthspan, lifespan and/or mental acuity” (NeueRe, LLC, priority 2017, dated 2023)
